Legend:
alcohol preferring rats [1] = assay: Alcohol Preferring Rats, Study B: Post-Deprivation Effect; format: in vivo, rat; conditions: 30 mg/kg; for % EtOH / Alcohol: 45 min before re-exposure to alcohol after 72 hours deprivation
Description: (§1) Adult male selectively-bred alcohol preferring rats were used in this study. The selectively bred alcohol preferring rats are widely used to study the suppressant effects of compounds on voluntary alcohol intake (Faren et al. 2000; Rezvani et al, 1990, 1991, 1992a, 1992b, 1999, 2000, 2002; 2003; Murphy et al, 1988; Overstreet et al., 1992, 1999; Li and McBride, 1995).
(§2) The rats were housed individually under a constant room temperature of 22±1° C. and 12:12 light-dark cycle (7:00-19:00, dark). Animals were fed Agway Prolab Rat/Mouse/Hamster 3000 formula and water ad libitum.
(§3) Alcohol intake was determined using a standard two-bottle choice method (Murphy et al. 1988; McBride et al. 1990; Rezvani et al. 1990, 1991, 1993, 1995, 1997, Rezvani et al., 2007a,b; Rezvani and Grady, 1994). Animals were first given free access to water in a graduated Richter tube for 1 day. Next, they were given access to only a solution of 10% (v/v) ethanol for 3 consecutive days. During this period the animals became accustomed to drinking from Richter tubes and to the taste and pharmacological effects of alcohol. Thereafter, the animals were given free access to both water and a solution of 10% alcohol for 4 consecutive weeks and throughout of the study. The animals continued to have free access to food. Water and alcohol intake were recorded at 6 and 24 hour.
Following Study A, the rats were maintained on alcohol for 15 days without drug. On day 16 post-gavage, rats were put on food and water only for 72 hours. On the next day, 45 min before re-exposure to alcohol, the rats were treated with vehicle (0.5% methylcellulose), naltrexone (at 20 mg/kg) or compound of formula (I-A) (at 30-mg/kg). Alcohol intake was then measured at 1, 3, 6 and 24 hr after exposure.
The results are presented as a means. Alcohol intake (g/kg) was calculated by multiplying the volume of alcohol consumed in ml by 10% and 0.7893 (ethanol density)/body weight in kg. Alcohol preference, expressed as percentage was calculated as (volume of alcohol consumed in ml/total fluid intake in ml)×100 (Rezvani and Grady, 1994; Rezvani et al., 2007a). Statistical differences between drug-treated and control groups was determined by using ANOVA and Tukey Student's t test for multiple comparison.
The results from Study B provide a measure of the effectiveness of the test compound to suppress post-deprivation-induced craving for alcohol.

alcohol preferring rats [2] = assay: Alcohol Preferring Rats, Study A: Chronic Administration (14 days); format: in vivo, rat; conditions: 30 mg/kg once a day
Description: as §1, §2, §3
After establishment of a reliable baseline for alcohol, and water intake, the animals were randomly assigned to a treatment regimen. The animals were administered once a day, via gavage, either vehicle (0.5% methylcellulose) or compound of formula (I-A) (at 30 mg/kg) or naltrexone (at 20 mg/kg) for 14 consecutive days. A group of 6-7 animals was used for each treatment. Alcohol and water intake was recorded at 6 hrs and 24 hrs after administration.
The results are presented as a means ±SEM. Alcohol intake (g/kg) was calculated by multiplying the volume of alcohol consumed in ml by 10% and 0.7893 (ethanol density)/body weight in kg. Alcohol preference, expressed as percentage was calculated as (volume of alcohol consumed in ml/total fluid intake in ml)×100 (Rezvani and Grady, 1994; Rezvani et al., 2007a). Statistical differences between drug-treated and control groups was determined by using ANOVA and Tukey Student's t test for multiple comparison.
The results from Study A provide a measure of whether or not the animals develop tolerance to the suppressant effects of the test compound following a chronic treatment. In Tables 5-8 below, the abbreviation “(I-A)” stands for the compound of formula (I-A), the abbreviation “Naltx” stands for naltrexone, and the abbreviation “EtOH” stands for ethanol.

Cc1cccc2cccc(CN3CCC4(CC3)C(=O)N(C[C@H](O)CN)CN4c3ccc(F)cc3)c12 [Cmpd (I-A), 3-(3-amino-2-(R)-hydroxy-propyl)-1-(4-fluoro-phenyl)-8-(8-methyl-naphthalen-1-ylmethyl)-1,3,8-triazaspiro[4.5]decan-4-one]
% EtOH (alcohol preferring rats [1]; 1 Hour Post Dosing): 84% | Alcohol (alcohol preferring rats [1]; 1 Hour Post Dosing): 0.39 g/kg | % EtOH (alcohol preferring rats [1]; 3 Hours Post Dosing): 75% | Alcohol (alcohol preferring rats [1]; 3 Hours Post Dosing): 0.72 g/kg | % EtOH (alcohol preferring rats [1]; 6 Hours Post Dosing): 72% | Alcohol (alcohol preferring rats [1]; 6 Hours Post Dosing): 1.48 g/kg | % EtOH (alcohol preferring rats [1]; 24 Hours Post Dosing): 73% | Alcohol (alcohol preferring rats [1]; 24 Hours Post Dosing): 3.72 g/kg | Alcohol intake and preference, post-deprivation (alcohol preferring rats [1]; at 1, 3, 6 and 24 hours post dosing): showed a decrease in alcohol intake and preference | Alcohol Intake (alcohol preferring rats [2]; gavage, Day 1, 6 Hour Intake): 1.31 g/kg | Alcohol Preference (alcohol preferring rats [2]; gavage, Day 1, 6 Hour Intake): 62 % EtOH | Alcohol Intake (alcohol preferring rats [2]; gavage, Day 1, 24 Hour Intake): 4.04 g/kg | Alcohol Preference (alcohol preferring rats [2]; gavage, Day 1, 24 Hour Intake): 72 % EtOH | Alcohol Intake (alcohol preferring rats [2]; gavage, Day 2, 6 Hour Intake): 1.54 g/kg | Alcohol Preference (alcohol preferring rats [2]; gavage, Day 2, 6 Hour Intake): 48 % EtOH | Alcohol Intake (alcohol preferring rats [2]; gavage, Day 2, 24 Hour Intake): 3.71 g/kg | Alcohol Preference (alcohol preferring rats [2]; gavage, Day 2, 24 Hour Intake): 56 % EtOH | Alcohol Intake (alcohol preferring rats [2]; gavage, Day 3, 6 Hour Intake): 1.71 g/kg | Alcohol Preference (alcohol preferring rats [2]; gavage, Day 3, 6 Hour Intake): 53 % EtOH | Alcohol Intake (alcohol preferring rats [2]; gavage, Day 3, 24 Hour Intake): 3.39 g/kg | Alcohol Preference (alcohol preferring rats [2]; gavage, Day 3, 24 Hour Intake): 54 % EtOH | Alcohol Intake (alcohol preferring rats [2]; gavage, Day 4, 6 Hour Intake): 1.24 g/kg | Alcohol Preference (alcohol preferring rats [2]; gavage, Day 4, 6 Hour Intake): 52 % EtOH | Alcohol Intake (alcohol preferring rats [2]; gavage, Day 4, 24 Hour Intake): 2.68 g/kg | Alcohol Preference (alcohol preferring rats [2]; gavage, Day 4, 24 Hour Intake): 50 % EtOH | Alcohol Intake (alcohol preferring rats [2]; gavage, Day 5, 6 Hour Intake): 1.54 g/kg | Alcohol Preference (alcohol preferring rats [2]; gavage, Day 5, 6 Hour Intake): 39 % EtOH | Alcohol Intake (alcohol preferring rats [2]; gavage, Day 5, 24 Hour Intake): 2.97 g/kg | Alcohol Preference (alcohol preferring rats [2]; gavage, Day 5, 24 Hour Intake): 47 % EtOH | Alcohol Intake (alcohol preferring rats [2]; gavage, Day 6, 6 Hour Intake): 1.04 g/kg | Alcohol Preference (alcohol preferring rats [2]; gavage, Day 6, 6 Hour Intake): 60 % EtOH | Alcohol Intake (alcohol preferring rats [2]; gavage, Day 6, 24 Hour Intake): 2.99 g/kg | Alcohol Preference (alcohol preferring rats [2]; gavage, Day 6, 24 Hour Intake): 59 % EtOH | Alcohol Intake (alcohol preferring rats [2]; gavage, Day 7, 6 Hour Intake): 1.34 g/kg | Alcohol Preference (alcohol preferring rats [2]; gavage, Day 7, 6 Hour Intake): 65 % EtOH | Alcohol Intake (alcohol preferring rats [2]; gavage, Day 7, 24 Hour Intake): 3.60 g/kg | Alcohol Preference (alcohol preferring rats [2]; gavage, Day 7, 24 Hour Intake): 76 % EtOH | Alcohol Intake (alcohol preferring rats [2]; gavage, Day 8, 6 Hour Intake): 1.63 g/kg | Alcohol Preference (alcohol preferring rats [2]; gavage, Day 8, 6 Hour Intake): 61 % EtOH | Alcohol Intake (alcohol preferring rats [2]; gavage, Day 8, 24 Hour Intake): 3.97 g/kg | Alcohol Preference (alcohol preferring rats [2]; gavage, Day 8, 24 Hour Intake): 70 % EtOH | Alcohol Intake (alcohol preferring rats [2]; gavage, Day 9, 6 Hour Intake): 1.84 g/kg | Alcohol Preference (alcohol preferring rats [2]; gavage, Day 9, 6 Hour Intake): 67 % EtOH | Alcohol Intake (alcohol preferring rats [2]; gavage, Day 9, 24 Hour Intake): 3.78 g/kg | Alcohol Preference (alcohol preferring rats [2]; gavage, Day 9, 24 Hour Intake): 68 % EtOH | Alcohol Intake (alcohol preferring rats [2]; gavage, Day 10, 6 Hour Intake): 1.38 g/kg | Alcohol Preference (alcohol preferring rats [2]; gavage, Day 10, 6 Hour Intake): 72 % EtOH | Alcohol Intake (alcohol preferring rats [2]; gavage, Day 10, 24 Hour Intake): 3.00 g/kg | Alcohol Preference (alcohol preferring rats [2]; gavage, Day 10, 24 Hour Intake): 73 % EtOH | Alcohol Intake (alcohol preferring rats [2]; gavage, Day 11, 6 Hour Intake): 1.17 g/kg | Alcohol Preference (alcohol preferring rats [2]; gavage, Day 11, 6 Hour Intake): 67 % EtOH | Alcohol Intake (alcohol preferring rats [2]; gavage, Day 11, 24 Hour Intake): 2.86 g/kg | Alcohol Preference (alcohol preferring rats [2]; gavage, Day 11, 24 Hour Intake): 81 % EtOH | Alcohol Intake (alcohol preferring rats [2]; gavage, Day 12, 6 Hour Intake): 1.07 g/kg | Alcohol Preference (alcohol preferring rats [2]; gavage, Day 12, 6 Hour Intake): 51 % EtOH | Alcohol Intake (alcohol preferring rats [2]; gavage, Day 12, 24 Hour Intake): 3.03 g/kg | Alcohol Preference (alcohol preferring rats [2]; gavage, Day 12, 24 Hour Intake): 69 % EtOH | Alcohol Intake (alcohol preferring rats [2]; gavage, Day 13, 6 Hour Intake): 0.96 g/kg | Alcohol Preference (alcohol preferring rats [2]; gavage, Day 13, 6 Hour Intake): 45 % EtOH | Alcohol Intake (alcohol preferring rats [2]; gavage, Day 13, 24 Hour Intake): 2.67 g/kg | Alcohol Preference (alcohol preferring rats [2]; gavage, Day 13, 24 Hour Intake): 67 % EtOH | Alcohol Intake (alcohol preferring rats [2]; gavage, Day 14, 6 Hour Intake): 0.55 g/kg | Alcohol Preference (alcohol preferring rats [2]; gavage, Day 14, 6 Hour Intake): 28 % EtOH | Alcohol Intake (alcohol preferring rats [2]; gavage, Day 14, 24 Hour Intake): 1.91 g/kg | Alcohol Preference (alcohol preferring rats [2]; gavage, Day 14, 24 Hour Intake): 45 % EtOH | Alcohol Intake (alcohol preferring rats [2]; at 6 and 24 hours, over the course of 14 days): showed a decrease in alcohol intake | Tolerance to the alcohol reducing effects (alcohol preferring rats [2]; over the 14 days of administration): did not develop tolerance

From patent publication US20080200492A1, “METHODS FOR THE TREATMENT OF ALCOHOL ABUSE, ADDICTION AND DEPENDENCY” (priority 2006, published 2008)
